Patent US9421237B2, “Tripeptide boronic acid or boronic ester, preparative method and use thereof” (PEKING UNIVERSITY, priority 2009, dated 2016)

Legend:
[1] = biological target: T1, 20S proteasome extracted from rat liver, trypsin-like (TL) activity (Rattus norvegicus, UniProt P40112+Q9JHW0); assay: Proteasome inhibition, trypsin-like (TL) activity, fluorescent peptide Z-Ala-Arg-Arg-AMC; assay type: biochemical; settings: rat liver 20S proteasome, 37° C., 1 h; read-out: T-L (IC50)
T1 construct: 20S proteasome extracted from rat liver; from tissue; host or cells: rat liver
Description: (§1) The activities of the proteasome were assayed using fluorescent peptides: Suc-leu-leu-Val-Tyr-AMC (Suc represents succinyl, and AMC represents 7-amino-4-methylcoumarin, purchased from SIGMA) for determining chymotryptic-like (CT-L) activity; Z-Ala-Arg-Arg-AMC (Z represents benzyloxycarbonyl, purchased from Calbiochem) for determining trypsin-like (TL) activity; and Z-leu-leu-Glu-βNA (βNA represents β-naphtylamide, purchased from SIGMA) for determining peptidyl-glutamyl-peptide-hydrolyzing (PGPH) enzyme activity.
(§2) Method for the aforesaid activity assays is as follows: 1 μg of 20S proteasome extracted from rat liver was incubated with a 100 μL solution containing various concentrations of compounds, 50 μM fluorescent peptides and 20 mM Tris-HCl at 37° C. for 1 h, respectively. The fluorescence released from AMC and RNA reagents was measured by a spectrofluorimeter Fluostar OPTIMA and BMG Germany at excitation/emission wavelengths of 380/440 nm and 335/410 nm, respectively. 0.1% DMSO was used as a solvent control. Compared with the fluorescence of solvent control, an inhibition rate was calculated. Said assays used anticancer drug bortezomib (leukemia drug), namely PS341 as compound for positive control.

[2] = tested on: BGC-823 human gastric cancer cell; assay: Preliminary anti-tumor screening in vitro, SRB method; assay type: cell-based; parameters: key to Test results: +++: inhibition rates at three doses are greater than 50%; ++: inhibition rates at two doses are greater than 50%; +: inhibition rate at one dose is greater than 50%; settings: BGC-823, SRB; for Test results: number of doses with inhibition > 50%; for inhibition at 0.05 µM / inhibition at 0.5 µM / inhibition at 5 µM: Homo sapiens, read-out: Inhibition rate %
Description: (§3) The test methods used in this test example is the routine method for anti-tumor activities test in pharmaceutical area, for example, referring to the following reference: (J. Immunol Method, 1983, 65, 55).
(§4) Test models: A: MTT method (HL-60 human leukemia); B: SRB method (BGC-823 human gastric cancer); C: SRB method (Bel-7402 human hepatocarcinoma); D: SRB method (KB human nasopharyngeal carcinoma).
(§5) The aforesaid tests were carried out with the compounds of Examples 1-26 in the present invention, test results are shown in Tables 2-5.

[3] = tested on: Bel-7402 human hepatocarcinoma cell; assay: as above; assay type: cell-based; parameters: key to Test results: +++: inhibition rates at three doses are greater than 50%; ++: inhibition rates at two doses are greater than 50%; +: inhibition rate at one dose is greater than 50%; settings: Bel-7402, SRB; for Test results: number of doses with inhibition > 50%; for inhibition at 0.05 µM / inhibition at 0.5 µM / inhibition at 5 µM: Homo sapiens, read-out: Inhibition rate %
Description: as §3, §4, §5

[4] = tested on: KB human nasopharyngeal carcinoma cell; assay: as above; assay type: cell-based; parameters: key to Test results: +++: inhibition rates at three doses are greater than 50%; ++: inhibition rates at two doses are greater than 50%; +: inhibition rate at one dose is greater than 50%; settings: for inhibition at 0.05 µM / inhibition at 0.5 µM / inhibition at 5 µM: Homo sapiens, read-out: Inhibition rate %; for Test results: number of doses with inhibition > 50%
Description: as §3, §4, §5

[5] = tested on: HL-60 human leukemia cell; assay: Preliminary anti-tumor screening in vitro, MTT method; assay type: cell-based; parameters: key to Test results: +++: inhibition rates at three doses are greater than 50%; ++: inhibition rates at two doses are greater than 50%; +: inhibition rate at one dose is greater than 50%; settings: HL-60, MTT; for Test results: number of doses with inhibition > 50%; for inhibition at 0.05 µM / inhibition at 0.5 µM / inhibition at 5 µM: Homo sapiens, read-out: Inhibition rate %
Description: as §3, §4, §5

[6] = biological target: T2, 20S proteasome extracted from rat liver, chymotryptic-like (CT-L) activity (Rattus norvegicus, UniProt P18421+P28075); assay: Proteasome inhibition, chymotryptic-like (CT-L) activity, fluorescent peptide Suc-leu-leu-Val-Tyr-AMC; assay type: biochemical; settings: rat liver 20S proteasome, 37° C., 1 h
T2 construct: 20S proteasome extracted from rat liver; from tissue; host or cells: rat liver
Description: as §1
as §2, with “calculated.” for “calculated. Said assays used anticancer drug bortezomib (leukemia drug), namely PS341 as compound for positive control.”

[7] = biological target: T3, 20S proteasome extracted from rat liver, peptidyl-glutamyl-peptide-hydrolyzing (PGPH) enzyme activity (Rattus norvegicus, UniProt P28073+Q9JHW0); assay: Proteasome inhibition, PGPH activity, fluorescent peptide Z-leu-leu-Glu-βNA; assay type: biochemical; settings: rat liver 20S proteasome, 37° C., 1 h
T3 construct: 20S proteasome extracted from rat liver; from tissue; host or cells: rat liver
Description: as §1, §2

murine H22 cells = assay: In vivo anti-tumor activity, H22 tumor in ICR mice, oral administration; settings: 1 mg/kg orally once per day for 10 days
Description: Animal: ICR mice, half male and half female (18-22 g), provided by Laboratory Animal Science Department of Peking Medical University.
Tumor cell strain: murine H22 cells were provided by cell bank of pharmacological group of the State Key Laboratory of Natural and Biomimetic Drugs.
Method: Murine tumor cells were taken to be treated, and diluted to 5×10^6 cells/ml after treatment. The diluted tumor cells solution was inoculated to the left forelimb oxter of the mice with 0.2 ml/mouse under aseptic condition. 24 h after inoculation, the mice were divided into groups and orally administered once per day to the mice in each group for 10 days. At the 12th day, the tumors were peeled off and weighed, and the average weight of the tumor, standard deviation (SD) and p-value of each group were calculated.

CC(C)C[C@H](NC(=O)[C@H](Cc1ccc2ccccc2c1)NC(=O)[C@H](Cc1ccc2ccccc2c1)NC(=O)c1cnccn1)B1OC2CC3C[C@@H](C3(C)C)[C@]2(C)O1 (stereo partly drawn) [Compound 5h, Pinanediol N-pyrazineformyl-L-naphthylalanyl-L-naphthylalanyl-L-leucine Borate]
melting point: 136 to 137 °C | IC50 [1]: > 20 nM | Test results [2]: +++ | inhibition at 0.05 µM [2]: 55% | inhibition at 0.5 µM [2]: 89% | inhibition at 5 µM [2]: 95.4% | Test results [3]: ++ | inhibition at 0.05 µM [3]: 13.1% | inhibition at 0.5 µM [3]: 51.7% | inhibition at 5 µM [3]: 91% | inhibition at 0.05 µM [4]: 20.8% | inhibition at 0.5 µM [4]: 91.2% | inhibition at 5 µM [4]: 94.6% | Test results [4]: ++ | Test results [5]: ++ | inhibition at 0.05 µM [5]: 11.4% | inhibition at 0.5 µM [5]: 85.5% | inhibition at 5 µM [5]: 88.3% | IC50 [6]: 0.495 ± 0.092 nM

CC(C)C[C@H](NC(=O)[C@H](Cc1ccccc1)NC(=O)[C@H](CC(C)C)NC(=O)c1cnccn1)B1OC2CC3C[C@@H](C3(C)C)[C@]2(C)O1 (stereo partly drawn) [Compound 5e, Pinanediol N-pyrazineformyl-L-leucyl-L-phenylalanyl-L-leucine Borate]
melting point: 63 to 65 °C | IC50 [1]: > 20 nM | IC50 [7]: 3.405 ± 0.021 nM | IC50 [6]: 0.431 ± 0.086 nM

CC(C)C[C@H](NC(=O)[C@H](CC(C)C)NC(=O)[C@H](Cc1ccc2ccccc2c1)NC(=O)c1cnccn1)B1OC2CC3C[C@@H](C3(C)C)[C@]2(C)O1 (stereo partly drawn) [Compound 5m, Pinanediol N-pyrazineformyl-L-naphthylalanyl-L-leucyl-L-leucine Borate]
melting point: 99 to 100 °C | IC50 [1]: > 20 nM | Test results [2]: ++ | inhibition at 0.05 µM [2]: 46% | inhibition at 0.5 µM [2]: 84.5% | inhibition at 5 µM [2]: 97.2% | Test results [3]: ++ | inhibition at 0.05 µM [3]: 6.49% | inhibition at 0.5 µM [3]: 52.6% | inhibition at 5 µM [3]: 95.7% | inhibition at 0.05 µM [4]: 8.59% | inhibition at 0.5 µM [4]: 85.6% | inhibition at 5 µM [4]: 96.2% | Test results [4]: ++ | Test results [5]: ++ | inhibition at 0.05 µM [5]: 11.2% | inhibition at 0.5 µM [5]: 82.7% | inhibition at 5 µM [5]: 87.9% | IC50 [6]: 0.345 ± 0.106 nM

CC(C)C[C@H](NC(=O)[C@H](CC1=CNC2C=CC=CC12)NC(=O)[C@H](Cc1ccccc1)NC(=O)c1cnccn1)B1OC2CC3C[C@@H](C3(C)C)[C@]2(C)O1 (stereo partly drawn) [Compound 5j]
IC50 [1]: > 20 nM | IC50 [7]: > 20 nM | IC50 [6]: > 20 nM

CC(C)C[C@H](NC(=O)[C@H](Cc1ccccc1)NC(=O)[C@H](Cc1ccccc1)NC(=O)c1cnccn1)B(O)O [Compound 6a, N-pyrazineformyl-L-phenylalanyl-L-phenylalanyl-L-leucine Boronic Acid]
melting point: 112 to 114 °C | IC50 [1]: > 20 nM | IC50 [7]: 10.9 ± 3.21 nM | IC50 [6]: 0.546 ± 0.077 nM

CC(C)C[C@H](NC(=O)[C@H](Cc1ccccc1)NC(=O)c1cnccn1)B(O)O [PS341, Bortezomib, reference compound]
IC50 [1]: > 20 nM | Body weight (g) (X ± SD) (murine H22 cells; ICR mice with H22): 0.65 ± 2.07 g | Inhibition rate (%) (murine H22 cells; tumors weighed at 12th day): 62.05% | Tumor weight (g) (X ± SD) (murine H22 cells; tumors weighed at 12th day): 0.47 ± 0.20 g

CC(C)C[C@H](NC(=O)[C@H](CC(C)C)NC(=O)[C@H](CC(C)C)NC(=O)c1cnccn1)B(O)O [Compound 6l, N-pyrazineformyl-L-leucyl-L-leucyl-L-leucine Boronic Acid]
IC50 [1]: > 20 nM | IC50 [7]: > 20 nM | IC50 [6]: > 20 nM

CC(C)C[C@H](NC(=O)[C@H](Cc1c[nH]c2ccccc12)NC(=O)[C@H](Cc1ccccc1)NC(=O)c1cnccn1)B(O)O [Compound 6j, N-pyrazineformyl-L-phenylalanyl-L-tryptophyl-L-leucine Boronic Acid]
IC50 [1]: > 20 nM | IC50 [7]: > 20 nM | IC50 [6]: > 20 nM

CC(C)C[C@H](NC(=O)[C@H](CC(C)C)NC(=O)[C@H](Cc1ccccc1)NC(=O)c1cnccn1)B1OC2CC3C[C@@H](C3(C)C)[C@]2(C)O1 (stereo partly drawn) [Compound 5k, Pinanediol N-pyrazineformyl-L-phenylalanyl-L-leucyl-L-leucine Borate]
melting point: 68 to 70 °C | IC50 [1]: > 20 nM | IC50 [7]: 2.73 ± 1.04 nM | IC50 [6]: 0.287 ± 0.019 nM

CC(C)C[C@H](NC(=O)[C@H](CC(C)C)NC(=O)[C@H](Cc1ccccc1)NC(=O)c1cnccn1)B(O)O [Compound 6k, N-pyrazineformyl-L-phenylalanyl-L-leucyl-L-leucine Boronic Acid]
melting point: 116 to 118 °C | IC50 [1]: > 20 nM | IC50 [7]: 5.66 ± 0.839 nM | IC50 [6]: 0.173 ± 0.033 nM

CC(C)C[C@H](NC(=O)[C@H](Cc1ccc2ccccc2c1)NC(=O)[C@H](Cc1ccccc1)NC(=O)c1cnccn1)B1OC2CC3C[C@@H](C3(C)C)[C@]2(C)O1 (stereo partly drawn) [Compound 5g, Pinanediol N-pyrazineformyl-L-phenylalanyl-L-naphthylalanyl-L-leucine Borate]
melting point: 97 to 98 °C | IC50 [1]: > 20 nM | Test results [2]: +++ | inhibition at 0.05 µM [2]: 77.6% | inhibition at 0.5 µM [2]: 95.4% | inhibition at 5 µM [2]: 95.9% | Test results [3]: ++ | inhibition at 0.05 µM [3]: 46.7% | inhibition at 0.5 µM [3]: 77.7% | inhibition at 5 µM [3]: 94.7% | inhibition at 0.05 µM [4]: 62.8% | inhibition at 0.5 µM [4]: 95.5% | inhibition at 5 µM [4]: 96.5% | Test results [4]: +++ | Test results [5]: ++ | inhibition at 0.05 µM [5]: -5.06% | inhibition at 0.5 µM [5]: 87.5% | inhibition at 5 µM [5]: 88.3% | IC50 [6]: 0.443 ± 0.081 nM

CC(C)C[C@H](NC(=O)[C@H](Cc1ccccc1)NC(=O)[C@H](CC(C)C)NC(=O)c1cnccn1)B(O)O [Compound 6e, N-pyrazineformyl-L-leucyl-L-phenylalanyl-L-leucine Boronic Acid]
melting point: 113 to 116 °C | IC50 [1]: > 20 nM | IC50 [7]: 5.14 ± 2.17 nM | IC50 [6]: 0.19 ± 0.017 nM

CC(C)C[C@H](NC(=O)[C@H](Cc1ccccc1)NC(=O)[C@H](Cc1c[nH]c2ccccc12)NC(=O)c1cnccn1)B(O)O [Compound 6i, N-pyrazineformyl-L-tryptophyl-L-phenylalanyl-L-leucine Boronic Acid]
IC50 [1]: > 20 nM | IC50 [7]: > 20 nM | IC50 [6]: > 20 nM
